# Measurements: patent US6153429A (priority 1997, dated 2000)
# Key:
# in vitro = conditions: mouse, c3h/10t1/2 t1 cells
# [1] = background statement, chemicals identified by IARC; cited from earlier work
Compound,fold induction at 504 h (in vitro),mutagenicity [1]
"c1ccc2c(c1)cc1ccc3cccc4ccc2c1c34 [Benzo[a]pyrene, benzo[a]pyrene]",1.15,–
"CC/C(=C(/CC)c1ccc(O)cc1)c1ccc(O)cc1 [Diethylstilbestroel, diethylstilbestroel]",1.12,only weakly mutagenic
"C=C(C)C12OC3(c4ccccc4)OC1C1C4OC4(CO)C(O)C4(O)C(=O)C(C)=CC4C1(O3)C(C)C2OC(=O)/C=C/C=C/c1ccccc1 (stereo not drawn) [Mezerein, mezerein]",2,–
Cn1c(=O)c2c(ncn2C)n(C)c1=O [caffeine],1,–
C1CCOC1 [tetrahydrofuran],1,–
